Test results as given in PMC4279406, “Simultaneous targeting of PI3Kδ and a PI3Kδ-dependent MEK1/2-Erk1/2 pathway for therapy in pediatric B-cell acute lymphoblastic leukemia” (Oncotarget, 2014).

Tests used:
[1] = test system: PI3Kδ (M-CSF-stimulated THP-1 monocytes); test: M-CSF-induced Akt phosphorylation in THP-1 cells; assay type: cell-based; settings: at 10 nM; M-CSF 50 ng/ml
Description: In fibroblasts, signals from the insulin-like growth factor 1 (IGF-1) receptor are mediated by PI3Kα, while lysophosphatidic acid (LPA) stimulates G-protein coupled receptor (GPCR) signals via PI3Kβ[26]. After being pre-incubated with X-370, murine embryonic fibroblasts cultured in serum-free medium were stimulated with IGF-1 or LPA. […] Either PI3Kδ or PI3Kγ can be activated in THP-1 monocytes dependent on the stimulating ligand, among which macrophage colony stimulating factor (M-CSF/CSF-1) activates RTK-coupled PI3Kδ, while monocyte chemoattractant protein-1 (MCP-1) activates PI3Kγ [24]. Accordingly, THP-1 cells cultured in serum-free medium were stimulated with MCP-1 or M-CSF in the presence of X-370 and phosphorylated Akt was measured.
Cell lysates were probed with indicated antibodies. The IC50 values were calculated based on relative band intensity measured with ImageQuant™ TL (GE Healthcare Life Sciences, Piscataway, NJ) (B). Data shown are mean values from three independent experiments. (C, D, E, F) X-370 blocked stimuli-triggered PI3Kδ activation. MEF cells and THP-1 were starved in serum-free medium for 12 h or 4 h respectively and X-370 were added for an additional 1 h treatment following stimulation of IGF-1 at 100 ng/ml for MEF cells (C), LPA at 10 μM for MEF cells (D), MCP-1 at 100ng/ml for THP-1 (E) and M-CSF at 50 ng/ml for THP-1 (F). […]

[2] = target: T1, IGF-1R, activated (Homo sapiens, UniProt P08069); test: KinaseProfiler protein kinase activity; assay type: biochemical; settings: 10 μM X-370
T1 construct: purchased Millipore KinaseProfiler
Description: (§1) In vitro kinase profile assays were analyzed by the Kinase Profiler Service (Millipore, United Kingdom) following its guidelines. A GST-tagged human p110δ and regulatory full-length p85 were co-expressed in insect cell Sf9. Recombinant protein was extracted by affinity purification. The PI3K kinase activity was determined in the increasing concentration of ATP and X-370 with PI3-Kinase HTRF™ Assay kit (Millipore) as described previously. […]
(§2) Table S1: Inhibitory activity of X-370 against protein kinases
(§3) kinome at 10 μM. The relative kianse activity left in the presence of 10 μM were shown (Mi llipore
(§4) Kinase activity (% of control) Kinase activity (% of control) Kinase activity (% of control)
(§5) CDK1/cyclinB 97 Lck activated 89 Ret 125

[3] = target: T2, Lck activated (Homo sapiens, UniProt P06239); test: KinaseProfiler protein kinase activity; assay type: biochemical; settings: 10 μM X-370
T2 construct: purchased Millipore KinaseProfiler
Description: as §1, §2, §3, §4, §5

[4] = target: T3, TBK1 (Homo sapiens, UniProt Q9UHD2); test: KinaseProfiler protein kinase activity; assay type: biochemical; settings: 10 μM X-370
T3 construct: purchased Millipore KinaseProfiler
Description: as §1, §2, §3, §4, §5

[5] = test system: Raji cells; test: BrdU incorporation assay; assay type: cell-based, human; settings: 1 μM, 24 h
Description: Simultaneous targeting of PI3Kδ and a PI3Kδ-dependent MEK1/2-Erk1/2 pathway for therapy in pediatric B-cell acute lymphoblastic […]
Cells were treated as indicated conditions and then subjected to lysate to perform standard Western blot as described previously1. Briefly, whole-cell lysates and SDS-loading buffer diluted cell fractions were analyzed on SDS-PAGE gels. Transfer to nitrocellulose membranes, nonfat milk blocking, probing with indicated primary antibodies and the corresponding HRP-conjugated second antibodies.
Chemiluminescence were performed and captured using ImageQuant LAS 4000 (GE healthcare Life Sciences, Piscataway, NJ, USA) and band intensity was measure both with ImageQuant™ TL (GE Healthcare Life Sciences) 2.
Caspase 3/7 activity assay
Raji cells were treated with or without X-370 at 1 μM, 5μM and 10 μM for 24, 48 and 72 hours, thenwere measured using the Caspase-Glo® 3/7 Assay (Promega, US) following the protocol and relative caspase-3/7 activity was normalized to cell number which DMSO control was the base line.
5-bromo-2'-deoxyuridine (BrdU) incorporation Assay
5-bromo-2'-deoxyuridine (BrdU) incorporation was performed using FITC BrdU Flow Kit (BD Pharmingen, San Diego, CA) according to the provided protocol.
Figure S1;. CAL-101 docked to the crystal structure of PI3Kδ. […]

T2 sequence (P06239 whole entry): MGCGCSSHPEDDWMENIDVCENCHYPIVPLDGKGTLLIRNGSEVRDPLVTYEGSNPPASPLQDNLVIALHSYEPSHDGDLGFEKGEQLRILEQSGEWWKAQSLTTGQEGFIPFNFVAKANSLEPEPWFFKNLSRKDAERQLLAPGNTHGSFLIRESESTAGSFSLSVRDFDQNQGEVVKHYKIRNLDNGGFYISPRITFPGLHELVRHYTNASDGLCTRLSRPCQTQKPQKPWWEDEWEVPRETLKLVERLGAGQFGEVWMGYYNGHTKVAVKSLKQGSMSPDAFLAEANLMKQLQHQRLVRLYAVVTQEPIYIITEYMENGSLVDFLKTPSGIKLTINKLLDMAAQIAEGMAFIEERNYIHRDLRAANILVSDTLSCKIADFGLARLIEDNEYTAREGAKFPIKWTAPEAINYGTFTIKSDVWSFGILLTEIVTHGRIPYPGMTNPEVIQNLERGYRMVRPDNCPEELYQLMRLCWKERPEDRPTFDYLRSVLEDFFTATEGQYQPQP
T3 sequence (Q9UHD2 whole entry): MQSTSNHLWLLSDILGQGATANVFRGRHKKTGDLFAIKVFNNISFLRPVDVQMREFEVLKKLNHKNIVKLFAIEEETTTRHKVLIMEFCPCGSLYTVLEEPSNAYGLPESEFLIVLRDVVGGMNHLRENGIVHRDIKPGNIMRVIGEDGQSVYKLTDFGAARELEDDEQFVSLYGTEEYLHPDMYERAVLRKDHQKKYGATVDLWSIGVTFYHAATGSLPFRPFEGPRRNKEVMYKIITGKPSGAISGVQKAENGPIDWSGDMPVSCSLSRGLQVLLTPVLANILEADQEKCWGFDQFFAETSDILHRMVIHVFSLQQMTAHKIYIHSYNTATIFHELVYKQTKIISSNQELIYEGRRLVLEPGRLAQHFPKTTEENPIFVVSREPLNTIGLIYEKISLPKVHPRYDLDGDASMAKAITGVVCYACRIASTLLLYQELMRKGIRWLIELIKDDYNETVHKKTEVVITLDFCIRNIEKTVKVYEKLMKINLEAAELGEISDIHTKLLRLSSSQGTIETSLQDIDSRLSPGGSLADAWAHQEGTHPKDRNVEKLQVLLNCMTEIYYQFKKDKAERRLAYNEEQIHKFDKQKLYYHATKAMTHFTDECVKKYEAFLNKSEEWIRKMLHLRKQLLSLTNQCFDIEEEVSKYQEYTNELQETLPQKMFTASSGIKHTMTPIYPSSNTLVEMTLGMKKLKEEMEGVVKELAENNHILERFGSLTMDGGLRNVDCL
T1 sequence (P08069 31-1367): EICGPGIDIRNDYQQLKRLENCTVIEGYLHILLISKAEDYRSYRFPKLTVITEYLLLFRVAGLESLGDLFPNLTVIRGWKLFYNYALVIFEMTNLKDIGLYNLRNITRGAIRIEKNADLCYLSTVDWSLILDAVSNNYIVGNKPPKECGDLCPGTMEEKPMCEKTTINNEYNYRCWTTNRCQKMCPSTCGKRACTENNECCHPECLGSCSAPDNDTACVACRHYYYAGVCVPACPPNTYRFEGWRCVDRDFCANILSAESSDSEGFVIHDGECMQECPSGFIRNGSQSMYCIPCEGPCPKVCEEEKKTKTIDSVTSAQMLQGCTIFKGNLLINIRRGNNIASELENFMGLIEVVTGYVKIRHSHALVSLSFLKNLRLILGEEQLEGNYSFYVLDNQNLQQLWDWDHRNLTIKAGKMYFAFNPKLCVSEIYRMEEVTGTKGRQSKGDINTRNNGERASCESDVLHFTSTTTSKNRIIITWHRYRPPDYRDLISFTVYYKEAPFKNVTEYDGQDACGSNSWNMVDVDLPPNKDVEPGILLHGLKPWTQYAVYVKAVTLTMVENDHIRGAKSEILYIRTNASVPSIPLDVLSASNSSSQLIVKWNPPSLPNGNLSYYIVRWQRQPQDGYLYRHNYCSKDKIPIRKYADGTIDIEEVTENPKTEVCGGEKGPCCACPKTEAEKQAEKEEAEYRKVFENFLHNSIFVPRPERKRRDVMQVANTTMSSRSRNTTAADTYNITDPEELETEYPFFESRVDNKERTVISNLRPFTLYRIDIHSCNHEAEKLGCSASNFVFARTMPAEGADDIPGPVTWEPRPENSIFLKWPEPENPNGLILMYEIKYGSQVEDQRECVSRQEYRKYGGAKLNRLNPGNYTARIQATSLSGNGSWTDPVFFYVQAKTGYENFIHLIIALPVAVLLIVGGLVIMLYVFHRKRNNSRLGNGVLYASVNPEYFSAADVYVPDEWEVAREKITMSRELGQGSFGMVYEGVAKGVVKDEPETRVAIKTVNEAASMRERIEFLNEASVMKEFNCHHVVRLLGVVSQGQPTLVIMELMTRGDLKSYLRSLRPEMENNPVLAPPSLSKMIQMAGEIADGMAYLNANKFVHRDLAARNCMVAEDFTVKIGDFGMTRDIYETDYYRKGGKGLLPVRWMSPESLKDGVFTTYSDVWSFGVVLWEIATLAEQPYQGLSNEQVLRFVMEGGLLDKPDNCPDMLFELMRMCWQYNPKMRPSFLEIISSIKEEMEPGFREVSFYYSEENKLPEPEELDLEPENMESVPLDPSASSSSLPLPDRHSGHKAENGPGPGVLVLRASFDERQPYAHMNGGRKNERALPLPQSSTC

## O=C(N1CCCC1)N1CCC(n2cnc3c(-n4c(C(F)F)nc5ccccc54)nc(N4CCOCC4)nc32)CC1 [X-370]
[1]
  M-CSF-induced Akt phosphorylation: completely blocked
[2]
  Kinase activity (% of control): 120 % of control
[3]
  Kinase activity (% of control): 89 % of control
[4]
  Kinase activity (% of control): 93 % of control
[5]
  DNA synthesis (BrdU incorporation): readily inhibited
